Results as given in ChEMBL document CHEMBL1126420, “Design and synthesis of novel ligands for the 5-HT3 and the 5-HT4 receptor” (Bioorg Med Chem Lett, 1992).

Experiments:
[1] = target: T1, Serotonin 3 receptor (5HT3) (Mus musculus) (UniProt Q9JHJ5+P23979); assay: Compound was evaluated for binding to 5-hydroxytryptamine 3 receptor in N1E cells using [3H]- -Tropisetron as radioligand; format: cell-based
[2] = target: 5-hydroxytryptamine receptor 4 (Cavia porcellus) (UniProt O70528); assay: Agonistic activity against Serotonin 5-hydroxytryptamine 4 receptor in low frequency field stimulation of guinea-pig ileum (FSGPI).; format: functional, tissue-based
[3] = target: T2, Serotonin 3 (5-HT3) receptor (Homo sapiens) (UniProt P46098+A5X5Y0+O95264+Q70Z44+Q8WXA8); assay: Evaluated for the antagonistic activity against Serotonin 5-hydroxytryptamine 3 receptor in isolated guinea pig ileum (GPI); format: functional, tissue-based; conditions: Cavia porcellus, target entry is the homologue from another species
[4] = target: T2, Serotonin 3 (5-HT3) receptor (Homo sapiens); assay: Evaluated for the antagonistic activity against Serotonin 5-hydroxytryptamine 3 receptor in isolated rabbit vagus nerve (RVN); format: functional, tissue-based; conditions: Oryctolagus cuniculus, target entry is the homologue from another species
[5] = target: T2, Serotonin 3 (5-HT3) receptor (Homo sapiens); assay: (§1) Evaluated for the antagonistic activity against Serotonin 5-hydroxytryptamine 3 receptor in isolated perfused rabbit heart (RH); format: functional; conditions: Oryctolagus cuniculus; target entry is the homologue from another species
[6] = target: Serotonin 3 (5-HT3) receptor; assay: as §1; format: functional, Oryctolagus cuniculus
[7] = target: Serotonin 3 (5-HT3) receptor; assay: Antagonistic activity against Serotonin 5-hydroxytryptamine 3 receptor of isolated guinea pig ileum (GPI); format: functional, tissue-based, Cavia porcellus
[8] = target: 5-hydroxytryptamine receptor 4 (Cavia porcellus) (UniProt O70528); assay: Agonistic activity against Serotonin 5-HT4 receptor in low frequency field stimulation of guinea-pig ileum (FSGPI); format: functional, tissue-based
[9] = target: 5-hydroxytryptamine receptor 4 (Cavia porcellus) (UniProt O70528); conditions: Ileum
Description: Evaluated for the agonistic activity against 5-HT4 receptor in non-electrically stimulated guinea-pig ileum.

[10] = target: Serotonin 3 (5-HT3) receptor; assay: Antagonistic activity against Serotonin 5-hydroxytryptamine 3 receptor in isolated rabbit vagus nerve (RVN); format: functional, tissue-based, Oryctolagus cuniculus
[11] = target: 5-hydroxytryptamine receptor 4 (Cavia porcellus) (UniProt O70528); assay: Agonistic activity against Serotonin 5-hydroxytryptamine 4 receptor in non-electrically stimulated guinea-pig ileum.; format: functional, tissue-based
[12] = target: Serotonin 3 (5-HT3) receptor; assay: Evaluated for the antagonistic activity against 5-hydroxytryptamine 3 receptor in isolated rabbit vagus nerve (RVN); format: functional, tissue-based, Oryctolagus cuniculus
[13] = target: 5-hydroxytryptamine receptor 4 (Cavia porcellus, UniProt O70528); assay: Evaluated for the antagonistic activity against Serotonin 5-hydroxytryptamine 4 receptor in non-electrically stimulated guinea-pig ileum.; format: functional, tissue-based; conditions: read-out: pA2 (converted)
[14] = target: T1, Serotonin 3 receptor (5HT3) (Mus musculus); assay: Compound was evaluated for binding to Serotonin 5-hydroxytryptamine 3 receptor in N1E cells using [3H]- -Tropisetron as radioligand; format: cell-based
[15] = target: Serotonin 3 (5-HT3) receptor; assay: Evaluated for the antagonistic activity against 5-hydroxytryptamine 3 receptor in isolated perfused rabbit heart (RH); format: functional, Oryctolagus cuniculus
[16] = pKa value was determined; format: physicochemical
[17] = species on record: Rattus norvegicus; assay: Effective dose inhibited the Bezold-Jarisch reflex in rats was determined; format: functional
[18] = target: 5-hydroxytryptamine receptor 4 (Cavia porcellus) (UniProt O70528); conditions: Ileum; remark: listed apart in the source
Description: pD2 value in the non-electrically stimulated guinea pig ileum

[19] = target: 5-hydroxytryptamine receptor 4 (Cavia porcellus) (UniProt O70528); assay: Evaluated for the agonistic activity against Serotonin 5-HT4 receptor in non-electrically stimulated guinea-pig ileum.; format: functional, tissue-based

T1 sequence (P23979 whole entry, looked up): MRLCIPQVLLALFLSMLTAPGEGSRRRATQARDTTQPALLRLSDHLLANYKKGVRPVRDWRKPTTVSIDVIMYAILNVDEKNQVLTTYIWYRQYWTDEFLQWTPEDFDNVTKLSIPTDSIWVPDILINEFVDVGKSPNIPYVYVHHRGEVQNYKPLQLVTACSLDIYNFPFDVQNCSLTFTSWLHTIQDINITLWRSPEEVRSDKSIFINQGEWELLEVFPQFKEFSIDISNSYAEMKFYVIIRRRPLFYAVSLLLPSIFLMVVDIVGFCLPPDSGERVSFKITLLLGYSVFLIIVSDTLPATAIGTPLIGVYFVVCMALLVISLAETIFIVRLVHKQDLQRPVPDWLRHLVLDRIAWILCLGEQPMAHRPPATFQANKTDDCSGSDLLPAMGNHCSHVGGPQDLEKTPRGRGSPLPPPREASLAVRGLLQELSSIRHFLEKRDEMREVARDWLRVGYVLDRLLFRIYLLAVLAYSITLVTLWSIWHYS
T1 sequence (Q9JHJ5 whole entry, looked up): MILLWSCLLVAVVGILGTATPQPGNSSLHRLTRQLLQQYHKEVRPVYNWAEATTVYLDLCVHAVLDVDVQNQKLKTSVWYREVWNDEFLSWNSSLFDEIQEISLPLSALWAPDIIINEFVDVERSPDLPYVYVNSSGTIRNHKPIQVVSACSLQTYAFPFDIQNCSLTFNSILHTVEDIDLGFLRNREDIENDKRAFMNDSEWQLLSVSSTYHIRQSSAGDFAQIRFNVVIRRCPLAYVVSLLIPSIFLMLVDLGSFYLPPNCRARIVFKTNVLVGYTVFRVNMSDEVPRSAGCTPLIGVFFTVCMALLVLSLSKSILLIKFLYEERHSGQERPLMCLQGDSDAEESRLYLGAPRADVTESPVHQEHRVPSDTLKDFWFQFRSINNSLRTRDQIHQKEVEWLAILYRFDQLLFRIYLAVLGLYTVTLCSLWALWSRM
Chain of 5-hydroxytryptamine receptor 4 (Cavia porcellus) (O70528 whole entry): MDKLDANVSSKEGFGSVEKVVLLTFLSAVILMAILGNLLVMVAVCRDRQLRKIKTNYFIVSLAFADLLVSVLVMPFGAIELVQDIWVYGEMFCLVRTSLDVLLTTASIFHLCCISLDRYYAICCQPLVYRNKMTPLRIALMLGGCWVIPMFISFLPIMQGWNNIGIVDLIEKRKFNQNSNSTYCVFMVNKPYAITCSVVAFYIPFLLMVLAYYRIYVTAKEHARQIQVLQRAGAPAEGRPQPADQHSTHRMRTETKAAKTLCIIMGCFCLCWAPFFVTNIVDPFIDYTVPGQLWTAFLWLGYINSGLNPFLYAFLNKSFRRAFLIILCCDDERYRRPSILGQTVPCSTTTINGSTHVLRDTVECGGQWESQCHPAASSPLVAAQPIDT
Chain of 5-hydroxytryptamine receptor 4 (O70528 whole entry): as above

Cc1nccn1CC1CCc2c(c3ccccc3n2C)C1=O (configuration not stated)
pKD [1]: 7.7 | pD2 [2]: 5.1

Cc1[nH]c2ccc(O)cc2c1CCN
pD2 [3]: 5.1 | pD2 [4]: 5.6 | pD2 [5]: 5.5

CCN(CC)CCNC(=O)c1cc(Cl)c(N)cc1OC [METOCLOPRAMIDE]
pA2 [6]: 7.1 | pD2 [2]: 5.5 | pA2 [7]: 5.2

NCCc1c[nH]c2ccc(O)cc12
pD2 [8]: 7 | pD2 [9]: 7.9

Cc1[nH]c2ccc(O)cc2c1CC(=N)NCCCN1CCCC1=O
pD2 [8]: 5.8

N#Cc1[nH]c2ccc(O)cc2c1CCN
pD2 [3]: 5.4 | pD2 [4]: 7.2 | pD2 [5]: 4

COc1cc(N)c(Cl)cc1C(=O)N[C@H]1CCN(CCCOc2ccc(F)cc2)C[C@H]1OC [CISAPRIDE]
pA2 [6]: 7.1 | pD2 [2]: 6 | pA2 [7]: 7.2 | pA2 [10]: 6.5

Nc1c(Cl)cc(C(=O)NC2CN3CCC2CC3)c2ncccc12 (configuration not stated)
pD2 [2]: 7.2 | pD2 [11]: 6 | pA2 [7]: 7.9 | pA2 [10]: 9

COc1cc(N)c(Cl)cc1C(=O)N[C@H]1CCN2CCC[C@@H]1C2
pA2 [6]: 8.6 | pD2 [2]: 7.1 | pD2 [11]: 5.7

Nc1c(Cl)cc(C(=O)NC2CCN3CCCC2C3)c2ncccc12 (configuration not stated)
pD2 [2]: 7.5 | pD2 [11]: 7.1 | pA2 [7]: 6.7

Nc1c(Cl)cc(C(=O)NC2CCN3CCCC2C3)c2nsnc12 (configuration not stated)
pD2 [2]: 7.2 | pD2 [11]: 6 | pA2 [7]: 6.8 | pA2 [10]: 7.7

CN1C2CC(OC(=O)c3c[nH]c4ccccc34)CC1C1OC12 (configuration not stated)
pA2 [12]: 10.6 | Kb [13]: 501 nM | pKD [14]: 9.2 | pD2 [2]: 0 | pA2 [7]: 8.8 | pA2 [15]: 11 | pKa [16]: 6.64

N/C(Cc1c[nH]c2ccc(O)cc12)=N\CCc1c[nH]c2ccc(O)cc12
pD2 [8]: 6.3

CN1[C@@H]2CC[C@H]1C[C@@H](OC(=O)c1c[nH]c3ccccc13)C2 [TROPISETRON]
ED50 [17]: 0.72 µg/kg | pD2 [18]: 5.7 | Kb [13]: 2000 nM | pKD [14]: 9.1 | pKa [16]: 8.4

CCN(CC)CCN1CCc2cc(N)c(Cl)cc2C1=O
pD2 [8]: 5.2 | pD2 [19]: 5.1

COc1cc(N)c(Cl)cc1C(=O)NC1CN2CCC1CC2 (configuration not stated)
pD2 [2]: 6.2 | pD2 [11]: 5.9

Nc1c(Cl)cc(C(=O)NC2CN3CCC2CC3)c2nsnc12 (configuration not stated)
pD2 [2]: 5.8 | pD2 [11]: 5.5 | pA2 [7]: 7.7 | pA2 [10]: 8.9

O=C(CC1CC2CCC(C1)N2)c1c[nH]c2cc(O)ccc12 (configuration not stated)
pD2 [4]: 7 | pD2 [5]: 6 | pA2 [7]: 6

NCCc1ccnc2ccc(O)cc12
pD2 [3]: 4.5 | pD2 [4]: 5.8

NCCC1CCCc2ccc(O)cc21 (configuration not stated)
pD2 [3]: 5.2 | pD2 [4]: 6 | pD2 [5]: 5.7

CCN(CC)CCOC(=O)c1cc(Cl)c(N)cc1OC
pD2 [19]: 7

CCN(CC)Cc1coc(-c2cc(Cl)c(N)cc2OC)n1
pD2 [8]: 6.1 | pD2 [19]: 6

COc1ccc2[nH]ccc2c1C(=O)NC1CN2CCC1CC2 (configuration not stated)
pD2 [2]: 6.6 | pD2 [11]: 7.1 | pA2 [7]: 7.2
